According to patent publication US8101750B2, “Process for the manufacturing of the compound 2-hydroxy-3-[5-(morpholin-4-ylmethyl)pyridin-2-yl]1H-indole-5-carbonitrile 701” (AstraZeneca AB, priority 2007, dated 2012):

melting point: 51 to 52 °C
Structure (SMILES): Cc1ccc(CN2CCOCC2)cn1
